According to patent US10485550B2, “Ophthalmic drug delivery device and methods of use” (priority 2012, dated 2019):
Values joined by “and” are separate entries in the source; they are usually repeats but may differ in a detail not shown here. Equal entries are not always repeated.

Test system: mouse eye
Experiment: Intraocular pressure (TonoLab) in mice after injection of ethacrynic acid, with or without healon, into the episcleral vein
Type: in vivo
Experimental: Basline intraocular pressures were measured in both eyes of the mouse using a TonoLab device. A piece of a latex glove was placed over the equator of the mouse eye. Initially, a glass microcannula was used to inject either (a) a solution of ethacrynic acid alone or (b) saline into the episcleral vein at the limbus of the right eye of each mouse. The solution or saline was injected until blanching was observed 360 degrees around the limbus. The piece of latex was then removed from the eye. Intraocular pressures were then measured daily and then weekly in both eyes of all mice. The ethacrynic acid injection alone produced its most profound effect at day 2; however, some effect was maintained until day 7. The results of the above protocol are provided in Table 1, and also shown in FIG. 4, where ethacrynic acid is noted as ECA (squares), saline control is BSS (triangles), and non-treated control is control (diamonds).
Next, ethacrynic acid was combined with healon in a 3:1 ratio. Again, a glass microcannula was used to inject either the ethacrynic acid/healon solution or BSS solution as the control. The ethacrynic acid/healon solution produced its most profound effect at 2 weeks but lasted 3 weeks. The results are provided in Table 2 and also shown in FIG. 3, where ethacrynic acid/healon is designated with squares, BSS as diamonds, and non injected controls as triangles.

[1] = ethacrynic acid injection alone, episcleral vein, mouse

Structure (SMILES): C=C(CC)C(=O)c1ccc(OCC(=O)O)c(Cl)c1Cl [ECA, [2,3-dichloro-4-(2-methylene-1-oxobutyl)phenoxy]acetic acid]
- Reduction of intraocular pressure (IOP) versus control (FIG. 5): reduces intraocular pressure (IOP) greater than control
- Animal status (mouse ECA6) (Table 1, ethacrynic acid alone, 1 wk): dead
- Intraocular pressure, OD, individual mouse (Table 2, ethacrynic acid combined with healon 3:1, episcleral vein injection, 1 day): 14 and 13 (2×) and 9 (2×)
- Avg. intraocular pressure, OD (Table 2, ethacrynic acid combined with healon 3:1, episcleral vein injection, 1 day, group avg (0 hr base avg 16.6)): 12.25
- Intraocular pressure, OD, individual mouse (Table 2, ethacrynic acid combined with healon 3:1, episcleral vein injection, 2 day): 12 (2×) and 19 (2×) and 22 and 16
- Avg. intraocular pressure, OD (Table 2, ethacrynic acid combined with healon 3:1, episcleral vein injection, 2 day, group avg): 16.8
- Intraocular pressure, OD, individual mouse (Table 2, ethacrynic acid combined with healon 3:1, episcleral vein injection, 5 day): 13 and 8 and 17 and 14 and 16 and 10
- Avg. intraocular pressure, OD (Table 2, ethacrynic acid combined with healon 3:1, episcleral vein injection, 5 day, group avg): 13.6
- Intraocular pressure, OD, individual mouse (Table 2, ethacrynic acid combined with healon 3:1, episcleral vein injection, 7 day): 10 (3×) and 9 and 7 and 20
- Avg. intraocular pressure, OD (Table 2, ethacrynic acid combined with healon 3:1, episcleral vein injection, 7 day, group avg): 11.2
- Intraocular pressure, OD, individual mouse (Table 2, ethacrynic acid combined with healon 3:1, episcleral vein injection, 14 day): 16 and 12 and 14 and 18 (2×)
- Avg. intraocular pressure, OD (Table 2, ethacrynic acid combined with healon 3:1, episcleral vein injection, 14 day, group avg): 15
- Intraocular pressure, OD, individual mouse (Table 2, ethacrynic acid combined with healon 3:1, episcleral vein injection, 21 day): 16 and 7 and 14 (2×) and 8
- Avg. intraocular pressure, OD (Table 2, ethacrynic acid combined with healon 3:1, episcleral vein injection, 21 day, group avg): 12.75
- Intraocular pressure, OD, individual mouse (Table 2, ethacrynic acid combined with healon 3:1, episcleral vein injection, 35 day): 11 and 8 and 15 and 17 and 14
- Avg. intraocular pressure, OD (Table 2, ethacrynic acid combined with healon 3:1, episcleral vein injection, 35 day, group avg): 12.75
- Intraocular pressure, OD, individual mouse (Table 2, ethacrynic acid combined with healon 3:1, episcleral vein injection, 42 day): 15 and 12 (2×) and 8 and 11
- Avg. intraocular pressure, OD (Table 2, ethacrynic acid combined with healon 3:1, episcleral vein injection, 42 day, group avg): 14.11
- Intraocular pressure, OD, individual mouse (Table 2, ethacrynic acid combined with healon 3:1, episcleral vein injection, 56 day): 13 and 10 (2×) and 7 and 17
- Avg. intraocular pressure, OD (Table 2, ethacrynic acid combined with healon 3:1, episcleral vein injection, 56 day, group avg): 13.47
- Intraocular pressure, OD, individual mouse (Table 2, ethacrynic acid combined with healon 3:1, episcleral vein injection, 64 day): 16 and 12 and 9 and 15 and 14
- Avg. intraocular pressure, OD (Table 2, ethacrynic acid combined with healon 3:1, episcleral vein injection, 64 day, group avg): 13.83
- Intraocular pressure, OD, individual mouse (Table 2, ethacrynic acid combined with healon 3:1, episcleral vein injection, 74 day (first 74 day column pair)): 19 and 14 and 17 and 18
- Avg. intraocular pressure, OD (Table 2, ethacrynic acid combined with healon 3:1, episcleral vein injection, 74 day (first 74 day column pair), group avg): 17
- Intraocular pressure, OD, individual mouse (Table 2, ethacrynic acid combined with healon 3:1, episcleral vein injection, 74 day (second 74 day column pair)): 17 and 11 and 16 (2×)
- Avg. intraocular pressure, OD (Table 2, ethacrynic acid combined with healon 3:1, episcleral vein injection, 74 day (second 74 day column pair), group avg): 19
- Animal status (mouse ECA6) (Table 2, 14 day): dead
- Intraocular pressure, OD, individual mouse (ethacrynic acid alone, episcleral vein injection right eye, 1 wk): 16 and 12 and 14 and 18
- Avg. intraocular pressure, OD (ethacrynic acid alone, episcleral vein injection right eye, 1 wk, group avg (0 hr base avg 16.6)): 15
- Intraocular pressure, OD, individual mouse (ethacrynic acid alone, episcleral vein injection right eye, 1 day): 14 and 13 (2×) and 9
- Avg. intraocular pressure, OD (ethacrynic acid alone, episcleral vein injection right eye, 1 day, group avg (0 hr base avg 16.6)): 12.25
- Intraocular pressure, OD, individual mouse (ethacrynic acid alone, episcleral vein injection right eye, 2 day): 12 (2×) and 19 (2×) and 22
- Avg. intraocular pressure, OD (ethacrynic acid alone, episcleral vein injection right eye, 2 day, group avg (0 hr base avg 16.6)): 16.8
- Intraocular pressure, OD, individual mouse (ethacrynic acid alone, episcleral vein injection right eye, 5 day): 13 and 8 and 17 and 14 and 16
- Avg. intraocular pressure, OD (ethacrynic acid alone, episcleral vein injection right eye, 5 day, group avg (0 hr base avg 16.6)): 13.6
- Intraocular pressure, OD, individual mouse (ethacrynic acid alone, episcleral vein injection right eye, 6 day): 10 (2×) and 9 and 7 and 20
- Avg. intraocular pressure, OD (ethacrynic acid alone, episcleral vein injection right eye, 6 day, group avg (0 hr base avg 16.6)): 11.2
- Effect on intraocular pressure maintained until [1]: 7 days
- Time of most profound effect on intraocular pressure [1]: 2 days
